Assay results reported in the supplement of paper PMC10307832.

Assays:
Assay in all cases: relative viability (nuclei count vs DMSO), 5 days (fraction); higher = more cells survive
EHT 1864 + Foretinib = compound: C1COCCN1CC2=CC(=O)C(=CO2)OCCCCCSC3=C4C=CC(=CC4=NC=C3)C(F)(F)F [EHT 1864] + COc1cc2c(Oc3ccc(NC(=O)C4(C(=O)Nc5ccc(F)cc5)CC4)cc3F)ccnc2cc1OCCCN1CCOCC1 [Foretinib] (partner 0.25 µM)
In short: (§1)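 Cells from lung cancer lines were seeded into 1536-well plates and, one day later, dosed by pin tool. Treatments were either a single drug or a fixed dose of an anchor drug with five library-drug doses (not always all listed) in √10 steps. After 5 days, nuclei were stained in a one-step fixation (final 0.05% Triton X-100, 1% formaldehyde, 1 ug/ml Hoechst) and counted on 4× images, and relative viability is the treated-to-vehicle nuclei ratio, as the median of duplicate plates.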

EHT 1864 + Pictilisib = compound: C1COCCN1CC2=CC(=O)C(=CO2)OCCCCCSC3=C4C=CC(=CC4=NC=C3)C(F)(F)F [EHT 1864] + CS(=O)(=O)N1CCN(Cc2cc3nc(-c4cccc5[nH]ncc45)nc(N4CCOCC4)c3s2)CC1 [Pictilisib] (partner 1 µM)
In short: as §1

EHT 1864 + AZD7762 = compound: C1COCCN1CC2=CC(=O)C(=CO2)OCCCCCSC3=C4C=CC(=CC4=NC=C3)C(F)(F)F [EHT 1864] + NC(=O)Nc1cc(-c2cccc(F)c2)sc1C(=O)N[C@H]1CCCNC1 [AZD7762] (partner 0.2 µM)
In short: as §1

EHT 1864 + Vorinostat = compound: C1COCCN1CC2=CC(=O)C(=CO2)OCCCCCSC3=C4C=CC(=CC4=NC=C3)C(F)(F)F [EHT 1864] + O=C(CCCCCCC(=O)Nc1ccccc1)NO [Vorinostat] (partner 1 µM)
In short: as §1

Cell Line	relative viability (EHT 1864 + Foretinib; first compound 0.04 µM)	relative viability (EHT 1864 + Foretinib; first compound 0.1265 µM)	relative viability (EHT 1864 + Foretinib; first compound 0.4 µM)	relative viability (EHT 1864 + Foretinib; first compound 1.265 µM)	relative viability (EHT 1864 + Foretinib; first compound 4 µM)	relative viability (EHT 1864 + Pictilisib; first compound 0.04 µM)	relative viability (EHT 1864 + Pictilisib; first compound 0.1265 µM)	relative viability (EHT 1864 + Pictilisib; first compound 0.4 µM)	relative viability (EHT 1864 + Pictilisib; first compound 1.265 µM)	relative viability (EHT 1864 + Pictilisib; first compound 4 µM)	relative viability (EHT 1864 + AZD7762; first compound 0.04 µM)	relative viability (EHT 1864 + AZD7762; first compound 0.1265 µM)	relative viability (EHT 1864 + AZD7762; first compound 0.4 µM)	relative viability (EHT 1864 + AZD7762; first compound 1.265 µM)	relative viability (EHT 1864 + AZD7762; first compound 4 µM)	relative viability (EHT 1864 + Vorinostat; first compound 0.04 µM)	relative viability (EHT 1864 + Vorinostat; first compound 0.1265 µM)	relative viability (EHT 1864 + Vorinostat; first compound 0.4 µM)	relative viability (EHT 1864 + Vorinostat; first compound 1.265 µM)	relative viability (EHT 1864 + Vorinostat; first compound 4 µM)
NCI-H838	0.88	0.864	1.05	0.95	1.01	0.501	0.353	0.548	0.435	0.428	0.959	0.895	0.886	0.872	0.959	0.713	0.668	0.74	0.723	0.727
PC-14	0.997	0.906	0.994	0.932	0.878	0.664	0.59	0.686	0.637	0.582	0.368	0.248	0.394	0.304	0.433	0.791	0.572	0.686	0.743	0.751
LK-2	1.14		0.919	0.982	1.35	0.614	0.487	0.591	0.479	0.661	0.462		0.296	0.443	0.286	0.312	0.265	0.206	0.253	0.284
NCI-H2170	1.01	1.01	0.998	0.943	1	0.371	0.272	0.374	0.309	0.275	0.77	0.764	0.9	0.86	0.963	0.789	0.692	0.774	0.84	0.94
HCC-78	0.578	0.474	0.538	0.606	0.633	0.262	0.209	0.242	0.205	0.25	0.82	0.59	0.67	0.602	0.422	0.377	0.429	0.421	0.429	0.467
NCI-H2405	1.05	1.05	1.07	0.999	1.13	0.447	0.398	0.456		0.439	0.8	0.657	0.728	0.687	0.697	1.03	0.895	1.06	0.963	0.909
EMC-BAC-2	0.967	1.06	1.01	1.01	0.951	0.525	0.551	0.548	0.517	0.517	1.24	0.944	1.1	1.09	0.974	0.45	0.383	0.503	0.427	0.504
NCI-H596	0.836	0.701	0.752	0.745	0.821	0.374	0.445	0.388	0.334	0.373	1.21	1.04	1.1	1.04	1.46	0.724	0.476	0.694	0.577	0.657
LCLC-97TM1	0.848	0.842	0.948	0.939	0.949	0.222		0.161	0.224	0.227	0.275	0.257	0.152	0.223	0.234	0.848	0.509	0.813	0.613	0.74
H3255	0.79	0.818	0.903	0.844	0.978	0.405	0.421	0.512	0.479	0.518	0.797	0.795	0.995	0.867	1.04	0.752	0.717		0.851	0.794
LXF-289	0.976	0.961	0.947	0.925	0.851	0.788	0.766	0.755	0.794	0.727	1.14	1.01	1.03	1.07	1.1	0.773	0.697	0.712	0.735	0.734
LC-2-ad	0.859		0.905	1.01	0.962	0.335		0.491	0.503	0.508	0.808	0.634	0.88	0.855	0.806	0.659	0.432	0.677	0.648	0.625
NCI-H1793	0.604		0.667		0.789		0.465	0.366	0.3	0.311	0.609	0.458	0.496	0.193	0.298	0.656	0.403	0.768	0.879	0.935
A-427	1.03	0.942	0.986	1.05	0.968	0.695	0.749	0.688	0.658	0.607	0.835	0.775	0.738	0.762	0.791	0.928	0.819	0.885	0.879	0.801
NCI-H322M	0.898	0.948	0.995	0.895	1.06	0.519	0.514	0.533	0.529	0.572	0.601	0.501	0.589	0.577	0.667	0.856	0.921	0.863	0.807	0.789
HCC-366	0.914	0.859	0.888	0.891	0.963	0.137	0.146	0.128	0.149	0.138	0.262	0.232	0.248	0.28	0.243	0.336	0.0895	0.312	0.327	0.337
